From PubChem BioAssay AID1259418 (Broad Institute, 2018)
Several values for one entry are separate records, joined by “and”; a condition that tells them apart may be missing. Identical values can stand only once. Inconclusive results are not listed. Activity calls are given as the source filed them.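 The calls were made as follows: active = fitted half-maximal concentration of signal decrease at or below twice the sample's top tested concentration; inconclusive = flat curve between -70 and -30 percent, or poor fit; inactive = flat within 30 percent, signal rise, or potency above limit.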

Biological target: T. gondii ME49Luc in IFN-y HeLa, luciferase, 72 h
Assay: T. gondii growth inhibition with IFN-gamma, dose response, cell-based, ME49Luc, HeLa, luciferase, 72 h (AID 1259418)

Row | Structure (SMILES) | AC50
1 | COc1cccc(N(Cc2nc(-c3cccc(C)c3)oc2C)S(=O)(=O)c2ccc(C)cc2)c1 | 4.46 µM
2 | Cc1cc(C(C)(C)CC(C)(C)C)ccc1OCCOCC[N+](C)(C)Cc1ccccc1 | 14.9 µM
3 | Cc1ccc(NC(=O)N2CCN(Cc3nc(-c4cccc(Cl)c4)oc3C)CC2)cc1 | > 39 µM (inactive)
4 | CC(C)CCN1Cc2c(C(=O)Nc3cccc(F)c3)ncn2-c2ccccc2S1(=O)=O | 13 µM
5 | CCc1ccc(S(=O)(=O)Nc2ccc(-c3nc(-c4ccc(C)cc4C)co3)cc2)cc1 | 8.52 µM
6 | O=C(NCCc1csc(-c2ccccc2)n1)C1CCN(C(=O)c2ccc(F)c(Cl)c2)CC1 | 5.61 µM
7 | COc1ccc(-c2nc(CN(c3ccccc3OC)S(=O)(=O)c3ccccc3)c(C)o2)cc1OC | 3.59 µM
8 | COc1cccc(S(=O)(=O)N2CCCCN3[C@H](CO)[C@H](c4ccc(-c5ccccc5)cc4)[C@H]3C2)c1 | 5.11 µM
9 | Cc1ccccc1CN1C[C@@H]2C[C@H](C(=O)Nc3ccccc3)[C@@H](C1)O2 | 10.5 µM
10 | CCc1c(C)sc2c1CCN(Cc1nc(-c3cccc(C)c3)oc1C)C2c1ccccc1 (stereo unspecified) | 9.68 µM
11 | O=C(CCC1N=C2c3ccccc3N=C(SCc3cccc(F)c3)N2C1=O)NCc1ccccc1 (stereo unspecified) | 27.4 µM
12 | Cc1ccccc1-c1nc(CN2CCN(C(=O)NCCc3ccccc3)CC2)c(C)o1 | 17.4 µM
13 | C[C@@H]1CN([C@H](C)CO)C(=O)Cc2cc(NC(=O)C3CCCCC3)ccc2O[C@H]1CN(C)Cc1ccc(Cl)c(Cl)c1 | 17.4 µM
14 | CSc1cccc(NC(=O)CN2CCC3(CC2)N=C(c2cccc(Cl)c2)C(=O)N3)c1 | 23.8 µM
15 | CC(C)n1c(C(=O)Nc2cccc(F)c2)nc2c1CCN(Cc1ccccc1)C2 | 9.4 µM
16 | COCCCNc1ncnc2c1cnn2-c1cccc(C)c1 | 14.6 µM
17 | C[C@H](CO)N1C[C@H](C)[C@H](CN(C)C(=O)Nc2ccc(C(F)(F)F)cc2)Oc2c(NC(=O)c3ccc(-c4nccs4)cc3)cccc2C1=O | 18 µM
18 | O=C1CCc2cc(S(=O)(=O)NCCc3ccccc3)cc3c2N1CCC3 | 14 µM
19 | COc1ccc(-c2nc(N(C)Cc3ccco3)c3ccccc3n2)cc1 | 17 µM
20 | O=C(C[C@H]1CC[C@H]2[C@@H](COC[C@H](O)CN2S(=O)(=O)c2ccccc2)O1)NCC1CCCCC1 | 20.8 µM
21 | O=C(c1cnccn1)N1CC(=O)N2[C@H](C1)[C@H](c1ccc(/C=C/c3ccccc3)cc1)[C@@H]2CO | 11.9 µM and 23.5 µM
22 | CCN1CCN(c2nc(-c3ccc(OC)cc3)nc3ccccc23)CC1 | 17.4 µM

Row | Structure (SMILES) | AC50
23 | Cc1ccc(-c2csc(-c3cccn3CC(=O)NCCN3CCC(C)CC3)n2)cc1 | 6.43 µM
24 | CCCCOc1ccc2c(=O)c(-c3cc(C(=O)OC)oc3C)c(C(F)(F)F)oc2c1C | 4.38 µM and 7.67 µM
25 | CN(C)c1nc(N2CCCC2)nc2c1CCN(Cc1ccoc1)CC2 | 16 µM
26 | Cc1cc(C(=O)Nc2ccc3c(c2)C(=O)N(C)[C@@H]2CC[C@@H](CC(=O)NCc4ccc(-c5ccccc5)cc4)O[C@@H]2CO3)no1 | 20.8 µM
27 | OC[C@H]1Nc2ccc(C#Cc3ccc(F)cc3)cc2[C@H]2[C@@H]1CCN2Cc1ccc2c(c1)OCO2 | 20 µM
28 | COc1ccc(OCC(=O)N2CCC3(CC2)Nc2ccc(Cl)cc2-n2cccc23)cc1 | > 39 µM (inactive)
29 | COc1ccccc1N(Cc1nc(-c2cccc(C)c2)oc1C)S(=O)(=O)c1ccc(C)cc1 | 9.12 µM
30 | COc1ccccc1NC(=O)Nc1ccc(-c2nc(-c3ccc(C)cc3C)co2)cc1 | 31.9 µM
31 | COc1cccc(-c2nc3c(s2)CN(S(=O)(=O)c2cc(C)ccc2C)CC3)c1 | 6.71 µM and 7.85 µM
32 | CCCc1ccc(S(=O)(=O)N2CCC[C@@H]2C(=O)NCCc2csc(-c3ccccc3)n2)cc1 | 3.78 µM and 16 µM
33 | CCOc1ccc(-c2nc(CN3CCN(C(=O)Nc4ccc(F)cc4)CC3)c(C)o2)cc1 | 12.8 µM
34 | CCOc1ccc(-c2nc3c(s2)CN(S(=O)(=O)c2cccc(F)c2)CC3)cc1 | > 39 µM (inactive)
35 | CC(=O)NC1=NN(C(C)=O)C(C)(c2ccccc2)S1 (stereo unspecified) | 11 µM and 6.03 µM
36 | Cn1ncnc1[C@H]1c2n[nH]c(=O)c3cc(F)cc(c23)N[C@@H]1c1ccc(F)cc1 | 38.6 µM
37 | O=C(Nc1cccc(F)c1)N1CCCCN2[C@H](C1)[C@@H](c1ccc(C#Cc3cccnc3)cc1)[C@@H]2CO | 10.3 µM
38 | COc1ccc(-c2nc(NCCCN3CCCCC3C)c3ccccc3n2)cc1 (stereo unspecified) | 13.9 µM
39 | Cc1ccc(-c2coc(-c3ccc(NS(=O)(=O)c4ccc(CC(C)C)cc4)cc3)n2)c(C)c1 | > 39 µM (inactive)
40 | C[C@@H]1CN([C@@H](C)CO)C(=O)Cc2cc(NS(=O)(=O)c3ccc(Cl)cc3)ccc2O[C@@H]1CN(C)C(=O)Nc1ccc(C(F)(F)F)cc1 | 27.9 µM and 13.5 µM
41 | Cc1ccccc1Cn1c(CN2CCC(C(=O)NCCCN3CCCC3)CC2)cc2ccccc21 | 18.2 µM
42 | N#C[C@@H]1[C@H](c2ccc(-c3cccc(F)c3)cc2)[C@H](CO)N1C(=O)NC1CCCC1 | 15.1 µM and 4.56 µM
43 | CCOc1ccc(N(Cc2nc(-c3ccc(OC)cc3)oc2C)S(=O)(=O)c2ccccc2)cc1 | 3.96 µM and 3.81 µM
44 | COc1ccc(NC(=O)CN2CCC3(CC2)N=C(c2cccc(Cl)c2)C(=O)N3)cc1 | 18.2 µM

Row | Structure (SMILES) | AC50
45 | COc1ccc(N(Cc2nc(-c3ccc(C)cc3)oc2C)S(=O)(=O)c2ccccc2)cc1 | 15.2 µM
46 | O=C(NCCc1csc(-c2ccccc2)n1)[C@H]1CCCN1C(=O)CCc1ccccc1 | > 39 µM (inactive)
47 | COc1ccc(-c2nc(Cn3nnc(-c4nc(-c5ccncc5)no4)c3C)c(C)o2)cc1 | > 39 µM (inactive)
48 | O=C(CC1N=C2c3ccccc3N=C(SCc3ccc(F)cc3)N2C1=O)NCc1ccco1 (stereo unspecified) | 20.5 µM
49 | O=S(=O)(c1ccccc1)N1CCc2c([nH]c3ccccc23)C1c1ccc(F)c(F)c1 (stereo unspecified) | 13.9 µM
50 | O=C(c1ccc[nH]1)N1CCC2(CC1)COCCN(c1ncccn1)C2 | 7.07 µM
51 | O=C(Nc1ccc(-c2nc(-c3ccccc3)co2)cc1)c1cccc(F)c1 | 30.6 µM
52 | COc1ccc(-c2nc(C)c(-c3ccc(SCc4cc(C)ccc4C)nn3)s2)cc1 | > 39 µM (inactive)
53 | O=C(CC1N=C2c3ccccc3N=C(SCc3ccccc3Cl)N2C1=O)NCc1ccco1 (stereo unspecified) | > 39 µM (inactive)
54 | COc1ccccc1C#Cc1ccc([C@@H]2[C@@H](CO)N3CCCCN(C(=O)C4CCC4)C[C@H]23)cc1 | 28.8 µM and 14.6 µM
55 | Clc1ccc(-c2nc(NC3CCCC3)c3ccccc3n2)cc1 | 17.6 µM
56 | COc1ccc(-c2nc(CN(c3cccc(OC)c3)S(=O)(=O)c3ccc(C)cc3)c(C)o2)cc1 | 8.49 µM
57 | CC(C)C#Cc1ccc([C@H]2[C@@H](C#N)N(C(=O)c3cccc(F)c3)[C@@H]2CO)cc1 | 22 µM
58 | C=CCN1CCC2(CC1)CC(NCc1ccc(C)s1)c1ccccc1O2 (stereo unspecified) | 12.1 µM
59 | Cc1nc2ccccn2c1CN(C)Cc1cnn(-c2ccccc2)c1 | > 39 µM (inactive)
60 | Clc1ccc(-n2ncc3c(NCc4cccc(Cl)c4)ncnc32)cc1 | 16.9 µM
61 | C(=C\c1ccc(C2[C@@H]3CN(Cc4nccs4)C[C@H]2N3)cc1)/c1ccccc1 (stereo partly specified) | 17.1 µM
62 | O=C(Nc1ccc(F)cc1)N1CC(=O)N2[C@H](CO)[C@@H](c3ccc(-c4cccc(F)c4)cc3)[C@@H]2C1 | 19.9 µM
63 | CC(C)N1c2ccc(F)cc2[C@@H]2CN(C(=O)c3ccco3)CC[C@H]21 | 12.8 µM
64 | O=C(C[C@H]1CC[C@@H]2[C@H](COC[C@@H](O)CN2Cc2ccc(Oc3ccccc3)cc2)O1)N1CCN(c2ccccc2)CC1 | 24 µM
65 | O=C(CCCCCCNC(=O)c1cnc(N(c2ccccc2)c2ccccc2)nc1)NO | 14.8 µM
66 | CC(C)C#Cc1ccc([C@H]2[C@@H](C#N)N(C(=O)c3cccc(F)c3)[C@H]2CO)cc1 | > 39 µM (inactive)
